The test system of one assay is Rhizoctonia solani. In words: Fungal growth inhibition, treated disc on agar (RHI SOL). Format: cell-based. The settings on record: disc dipped in 500 mg/l, 29° C.; for inhibition at 500 µg/mL: Rhizoctonia solani, read-out: Percent Growth Inhibition, RHI SOL.
In a further assay the test system is Helminthosporium sativum. Kind of assay: Barley spot blotch, foliar treatment (HEL SAT). In kind it is in vivo. Conditions: foliar, 1,000 mg/l; for pest or weed control at 1000 µg/mL: Helminthosporium, foliar, 216 h, read-out: Percent Reduction of Disease, HEL SAT. Summed up:
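Percent control of H. sativum blotch was computed after foliar spraying of six-day-old "Robust" barley (10 plants/pot) at 1,000 mg/l versus unsprayed pots. Spore inoculation followed spraying, then 24 h in a 99% humidity chamber and eight days in a 21° C greenhouse.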

Assay [1] has as its system Cercosporidium personatum. Kind of assay: Fungal germination and growth, treated disc on agar, scored (CER PER). Format: cell-based. Also noted: key: 100: Complete inhibition of germination and growth.; 80: Nearly complete inhibition but some growth.; 50: Partial inhibition of growth or, early complete inhibition but later growth begins.; 20: Some inhibition of growth, but not significant.; 0: No inhibition of growth. The settings on record: disc dipped in 500 mg/l, 29° C., numerical score 0-100, spore suspension. The source says:
Filter paper discs, each 11 mm. in diameter, were dipped in each of the test solutions. The discs were allowed to air dry to drive off the acetone solvent. A number of untreated discs were used as controls. The treated and untreated discs were then placed on agar plates and one of the following fungus species: Septoria nodorum (SEP NOD), Botrytis cinerea (BOT CIN), Fusarium oxysporum (FUS OXY), Pythium ultimum ([…]), Rhizoctonia solani (RHI SOL), Colletotrichum gossypii (COL GOS), and Scierotinia minor (SCL MIN), was added to the center of each disc in the form of a culture plug with the fungus mat in contact with the paper of the test disc. Cercosporidium personatum (CER PER), was added to discs as a spore suspension (20,000 spores/ml) to the disc (two drops of spore suspension per disc), rather than a mycelial culture plug. The plates were then incubated at 29° C. in an oven. In the case of the Cercosporidium personatum (CER PER) fungi, scoring was done on a numerical basis as follows: 100=Complete inhibition of germination and growth. 80=Nearly complete inhibition but some growth. 50=Partial inhibition of growth or, early complete inhibition but later growth begins. 20=Some inhibition of growth, but not significant. 0=No inhibition of growth. The results of all the above tests appear in Table III below under the headings "SEP NOD," "BOT CIN," "FUS OXY," "[…]" "COL GOS" and "CER PER".

The subject of the next assay is Erysiphe graminis. Kind of assay: Powdery mildew in barley, foliar application (ERY GRA). Conditions: foliar, 1,000 mg/l, 8 days after inoculation; for pest or weed control at 1000 µg/mL: Blumeria graminis, foliar, 192 h, read-out: Percent Reduction of Disease, ERY GRA. In kind it is in vivo. The gist of the method:
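'Robust' barley plants sprayed with acetone/TWEEN 20 aqueous emulsion at 1,000 mg/l, dried, then kept at 21° C in a greenhouse. Inoculated by distributing Erysiphe graminis spores from infected plants. Percent control computed from disease scores vs unsprayed control pots.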

Description for Rhizoctonia solani: The treated and untreated discs were then placed on agar plates and one of the following fungus species: Septoria nodorum (SEP NOD), Botrytis cinerea (BOT CIN), Fusarium oxysporum (FUS OXY), Pythium ultimum (PYT ULT), Rhizoctonia solani (RHI SOL), Colletotrichum gossypii (COL GOS), and Scierotinia minor (SCL MIN), was added to the center of each disc in the form of a culture plug with the fungus mat in contact with the paper of the test disc. Cercosporidium personatum (CER PER), was added to discs as a spore suspension (20,000 spores/ml) to the disc (two drops of spore suspension per disc), rather than a mycelial culture plug. The plates were then incubated at 29° C. in an oven.
With the exception of the discs containing Cercosporidium personatum, the discs were evaluated by first measuring the radius from the center of the fungus colony on the treated discs and on the untreated discs. Percent growth inhibition of each of the compounds tested was determined as a function of the difference between the radius of the fungus colony on the treated disc versus the radius of the fungus colony on the untreated disc.

As for `CCCCOc1ccc(CCC(C#N)(CCCC)c2cccnc2)cc1` (stereo not drawn) [Compound 54], the inhibition (usually the drop in the measured response relative to a control, in per cent) at 500 µg/mL in the assay with Rhizoctonia solani stood at 100%. Further, the pest or weed control at 1000 µg/mL with Helminthosporium sativum and with Erysiphe graminis was 100% throughout. Moreover, the “CER PER inhibition score” value in assay [1] came to 0.
Turning to `CC(C)CCC(C#N)(CCc1ccc(F)cc1)c1cccnc1` (stereo not drawn) [Compound 55], the “Percent Growth Inhibition, RHI SOL” value in the assay with Rhizoctonia solani stood at 50%. Besides, the “Percent Reduction of Disease, HEL SAT” value in the assay with Helminthosporium sativum was 90%. Moreover, the “CER PER inhibition score” value in assay [1] is recorded as 0. Further, the “Percent Reduction of Disease, ERY GRA” value with Erysiphe graminis came out at 100%.
Take `C=CCC(C#N)(CCc1ccc(OCCCC)cc1)c1cccnc1` (stereo not drawn) [Compound 56]: the inhibition at 500 µg/mL with Rhizoctonia solani was determined as 45%. Besides, the pest or weed control at 1000 µg/mL in the assay with Helminthosporium sativum is 100%; in the assay on Erysiphe graminis, 90%. In addition, the “CER PER inhibition score” value in assay [1] is 0.
Consider `CCCCOc1ccc(CCC(C#N)(CCC)c2cccnc2)cc1` (stereo not drawn) [Compound 57], for which the inhibition at 500 µg/mL with Rhizoctonia solani amounted to 40%. The pest or weed control at 1000 µg/mL was determined as 100% with Helminthosporium sativum and 90% in the assay on Erysiphe graminis. The “CER PER inhibition score” value in assay [1] came out at 0.
Regarding `CCCCOc1ccc(CCC(C#N)(CC(C)C)c2cccnc2)cc1` (stereo not drawn) [Compound 58], the inhibition at 500 µg/mL with Rhizoctonia solani came to 5%. In addition, the pest or weed control at 1000 µg/mL with Helminthosporium sativum was 0%; in the assay on Erysiphe graminis it was 90%. Further, the “CER PER inhibition score” value in assay [1] is 0.
On the same counts, the results for `CC=CCC(C#N)(CCc1ccc(F)cc1)c1cccnc1` (stereo not drawn) [Compound 59] are 5%, 90%, 100% and 0.
On the same counts, the results for `CCCCCC(C#N)(CCc1ccc(F)cc1)c1cccnc1` (stereo not drawn) [Compound 60] are 100%, 90%, 100% and 0.
On the same counts, the results for `C#CCC(CCc1ccccc1)(C(N)=S)c1cccnc1` (stereo not drawn) [Compound 61, α-(2-phenylethyl)-α-(2-propynyl)-3-pyridinethanethioamide] are 80%, 85%, 100% and 100.
Take `CCCCCC(CCc1ccc(F)cc1)(C(N)=O)c1cccnc1` (stereo not drawn) [Compound 62]: the inhibition at 500 µg/mL in the assay on Rhizoctonia solani is 5%. Moreover, the pest or weed control at 1000 µg/mL in the assay on Helminthosporium sativum and in the assay with Erysiphe graminis was 0% each time. For the same compound, in assay [1], the “CER PER inhibition score” value worked out at 0.
For `CCCCC(C#N)(CCCc1ccccc1OC)c1cccnc1` (stereo not drawn) [Compound 63], the inhibition at 500 µg/mL with Rhizoctonia solani amounted to 5%. The pest or weed control at 1000 µg/mL in the assay on Helminthosporium sativum and in the assay on Erysiphe graminis was 0% each time. In addition, the “CER PER inhibition score” value in assay [1] is 0.
Consider `N#CC(CCCF)(CCc1ccc(F)cc1)c1cccnc1` (stereo not drawn) [Compound 64], for which, in the assay on Rhizoctonia solani, the inhibition at 500 µg/mL was determined as 20%. For the same compound, the pest or weed control at 1000 µg/mL in the assay with Helminthosporium sativum came out at 85%; with Erysiphe graminis, 0%. In addition, in assay [1], the “CER PER inhibition score” value is given as 0.
Turning to `C=C(Cl)CC(C#N)(CCc1ccc(F)cc1)c1cccnc1` (stereo not drawn) [Compound 65], the inhibition at 500 µg/mL with Rhizoctonia solani came out at 30%. Also, the pest or weed control at 1000 µg/mL in the assay on Helminthosporium sativum came to 100%; in the assay on Erysiphe graminis it was 85%. Also, in assay [1], the “CER PER inhibition score” value is 0.
On the same counts, the results for `N#CC(CCCF)(CCc1ccccc1F)c1cccnc1` (stereo not drawn) [Compound 66] are 45%, 100%, 50% and 0.
On the same counts, the results for `C=CCC(C#N)(CCc1ccccc1F)c1cccnc1` (stereo not drawn) [Compound 67] are 40%, 100%, 100% and 100.
On the same counts, the results for `CCCCC(C#N)(CCc1ccc(OCCF)cc1)c1cccnc1` (stereo not drawn) [Compound 68] are 45%, 100%, 75% and 100.
